Earlier results as cited in patent publication US10588873B2, “Topical antifungal compositions” (Exodos Life Sciences LP, priority 2015, dated 2020).

Conditions: only or first printed pKa

Compound | pKa
CCCCCC(=O)O [caproic (hexanoic) acid] | 4.88
CC(=O)CCC(=O)O [levulinic acid] | 4.6
